Experimental data from BigSolDB 2.1.

CC1(C)CC(NCCCCCCNC2CC(C)(C)NC(C)(C)C2)CC(C)(C)N1
solubility (mole fraction)
Conditions | in acetone | in acetonitrile | in ethyl acetate | in isobutyl acetate | in isopropyl acetate | in methyl acetate | in n-propyl acetate
273.15 K | 0.00859 | 0.00115 | 0.0288 | 0.0497 | 0.0408 | 0.0224 | 0.0341
278.15 K | 0.013 | 0.00183 | 0.0396 | 0.0625 | 0.0549 | 0.0321 | 0.046
283.15 K | 0.0191 | 0.00233 | 0.056 | 0.0831 | 0.0736 | 0.0448 | 0.063
288.15 K | 0.029 | 0.00371 | 0.0776 | 0.108 | 0.0983 | 0.0663 | 0.084
293.15 K | 0.0467 | 0.00537 | 0.108 | 0.139 | 0.128 | 0.102 | 0.113
298.15 K | 0.0737 | 0.00821 | 0.145 | 0.178 | 0.165 | 0.142 | 0.152
303.15 K | 0.117 | 0.0139 | 0.193 | 0.226 | 0.212 | 0.185 | 0.2
